# Laboratory results from PubChem BioAssay AID1918958 (Molecular Pharmacology Branch, DTP, NCI, 2023).
# Values joined by “and” are separate entries in the source; they are usually repeats but may differ in a detail not shown here. Equal values may be shown once.
# Test system: NCI-H196 complex spheroid viability
# Assay: Anticancer human tumor NCI-H196 cell line growth inhibition [LSD1];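 note: spheroids exposed to agents for 7 days before readout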;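 for viability, T/C: 100% = DMSO vehicle control viability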
# Conditions: for viability, T/C: stronger effect = lower value
# How it was run: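 Complex spheroids of tumor cells with HUVEC and human MSCs, exposed to iadademstat combined with other agents. Each agent tested in half-log steps from near clinical Cmax (else 10 microM top), DMSO ≤0.25%.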
# [1] = curve of first compound, second compound 0.1 µM
# [2] = curve of first compound, second compound 0.316 µM
# [3] = curve of first compound, second compound 1 µM
# [4] = curve of first compound, second compound 3.16 µM
# [5] = curve of first compound, second compound 10 µM
# [6] = second compound 0.1 µM, first compound 0.00949 µM
# [7] = second compound 0.1 µM, first compound 0.03 µM
# [8] = second compound 0.1 µM, first compound 0.0949 µM
# [9] = second compound 0.1 µM, first compound 0.3 µM
# [10] = second compound 0.1 µM, first compound 0.949 µM
# [11] = second compound 0.1 µM, first compound 3 µM
# [12] = second compound 0.316 µM, first compound 0.00949 µM
# [13] = second compound 0.316 µM, first compound 0.03 µM
# [14] = second compound 0.316 µM, first compound 0.0949 µM
# [15] = second compound 0.316 µM, first compound 0.3 µM
# [16] = second compound 0.316 µM, first compound 0.949 µM
# [17] = second compound 0.316 µM, first compound 3 µM
# [18] = second compound 1 µM, first compound 0.00949 µM
# [19] = second compound 1 µM, first compound 0.03 µM
# [20] = second compound 1 µM, first compound 0.0949 µM
# [21] = second compound 1 µM, first compound 0.3 µM
# [22] = second compound 1 µM, first compound 0.949 µM
# [23] = second compound 1 µM, first compound 3 µM
# [24] = second compound 3.16 µM, first compound 0.00949 µM
# [25] = second compound 3.16 µM, first compound 0.03 µM
# [26] = second compound 3.16 µM, first compound 0.0949 µM
# [27] = second compound 3.16 µM, first compound 0.3 µM
# [28] = second compound 3.16 µM, first compound 0.949 µM
# [29] = second compound 3.16 µM, first compound 3 µM
# [30] = second compound 10 µM, first compound 0.00949 µM
# [31] = second compound 10 µM, first compound 0.03 µM
# [32] = second compound 10 µM, first compound 0.0949 µM
# [33] = second compound 10 µM, first compound 0.3 µM
# [34] = second compound 10 µM, first compound 0.949 µM
# [35] = second compound 10 µM, first compound 3 µM
smiles,measurement,setting,value
CCN(c1cc(-c2ccc(CN3CCOCC3)cc2)cc(C(=O)NCc2c(C)cc(C)[nH]c2=O)c1C)C1CCOCC1 + NC1CCC(NC2CC2c2ccccc2)CC1,IC50,[1],> 3000 nM
same,IC50,[2],> 3000 nM
same,IC50,[3],> 3000 nM
same,IC50,[4],> 3000 nM
same,IC50,[5],> 3000 nM
same,"viability, T/C",[6],100%
same,"viability, T/C",[7],95.6%
same,"viability, T/C",[8],93.1%
same,"viability, T/C",[9],103%
same,"viability, T/C",[10],96.4%
same,"viability, T/C",[11],101%
same,"viability, T/C",[12],99.5%
same,"viability, T/C",[13],93.8%
same,"viability, T/C",[14],101%
same,"viability, T/C",[15],100%
same,"viability, T/C",[16],104%
same,"viability, T/C",[17],110%
same,"viability, T/C",[18],92.5%
same,"viability, T/C",[19],93%
same,"viability, T/C",[20],98.7%
same,"viability, T/C",[21],95.2%
same,"viability, T/C",[22],99.6%
same,"viability, T/C",[23],103%
same,"viability, T/C",[24],87.8%
same,"viability, T/C",[25],91.4%
same,"viability, T/C",[26],95.3%
same,"viability, T/C",[27],95.6%
same,"viability, T/C",[28],91.6%
same,"viability, T/C",[29],99.9%
same,"viability, T/C",[30],104%
same,"viability, T/C",[31],93.3%
same,"viability, T/C",[32],94.6%
same,"viability, T/C",[33],105%
same,"viability, T/C",[34],86.7%
same,"viability, T/C",[35],101%
CC(C)c1c(-c2ccccc2)nc2c(C#N)c[nH]n2c1=O,"viability, T/C",compound 0.0316 µM,107% and 96.4%
same,"viability, T/C",compound 0.1 µM,108% and 100%
same,"viability, T/C",compound 0.316 µM,98.3% and 93.8%
same,"viability, T/C",compound 1 µM,101% and 91%
same,"viability, T/C",compound 3.16 µM,99.7% and 94.1%
same,"viability, T/C",compound 10 µM,88.7% and 84.2%
same,IC50,curve of compound,> 10000 nM
CC1COCCN1c1cc(-c2ccnn2C)c2ccnc(-c3ccn[nH]3)c2n1 (configuration not stated) + NC1CCC(NC2CC2c2ccccc2)CC1,IC50,[1],296 nM
same,IC50,[2],366 nM
same,IC50,[3],310 nM
same,IC50,[4],771 nM
same,IC50,[5],266 nM
same,"viability, T/C","second compound 0.1 µM, first compound 0.00316 µM",84.7%
same,"viability, T/C","second compound 0.1 µM, first compound 0.01 µM",84.3%
same,"viability, T/C","second compound 0.1 µM, first compound 0.0316 µM",80%
same,"viability, T/C","second compound 0.1 µM, first compound 0.1 µM",58.1%
same,"viability, T/C","second compound 0.1 µM, first compound 0.316 µM",54.1%
same,"viability, T/C","second compound 0.1 µM, first compound 1 µM",44.2%
same,"viability, T/C","second compound 0.316 µM, first compound 0.00316 µM",81%
same,"viability, T/C","second compound 0.316 µM, first compound 0.01 µM",86.4%
same,"viability, T/C","second compound 0.316 µM, first compound 0.0316 µM",75.2%
same,"viability, T/C","second compound 0.316 µM, first compound 0.1 µM",59.8%
same,"viability, T/C","second compound 0.316 µM, first compound 0.316 µM",51.7%
same,"viability, T/C","second compound 0.316 µM, first compound 1 µM",47.1%
same,"viability, T/C","second compound 1 µM, first compound 0.00316 µM",73.6%
same,"viability, T/C","second compound 1 µM, first compound 0.01 µM",78.7%
same,"viability, T/C","second compound 1 µM, first compound 0.0316 µM",74.2%
same,"viability, T/C","second compound 1 µM, first compound 0.1 µM",57.7%
same,"viability, T/C","second compound 1 µM, first compound 0.316 µM",51.8%
same,"viability, T/C","second compound 1 µM, first compound 1 µM",47.6%
same,"viability, T/C","second compound 3.16 µM, first compound 0.00316 µM",88%
same,"viability, T/C","second compound 3.16 µM, first compound 0.01 µM",82.6%
same,"viability, T/C","second compound 3.16 µM, first compound 0.0316 µM",69.9%
same,"viability, T/C","second compound 3.16 µM, first compound 0.1 µM",60.1%
same,"viability, T/C","second compound 3.16 µM, first compound 0.316 µM",53.9%
same,"viability, T/C","second compound 3.16 µM, first compound 1 µM",48.5%
same,"viability, T/C","second compound 10 µM, first compound 0.00316 µM",86.7%
same,"viability, T/C","second compound 10 µM, first compound 0.01 µM",78.8%
same,"viability, T/C","second compound 10 µM, first compound 0.0316 µM",74.5%
same,"viability, T/C","second compound 10 µM, first compound 0.1 µM",56.2%
same,"viability, T/C","second compound 10 µM, first compound 0.316 µM",49%
same,"viability, T/C","second compound 10 µM, first compound 1 µM",46.5%
O=C(C=Cc1cccc(S(=O)(=O)Nc2ccccc2)c1)NO + NC1CC1c1ccc(-c2cccc(O)c2)cc1,IC50,[1],138 nM
same,IC50,[2],129 nM
same,IC50,[3],149 nM
same,IC50,[4],137 nM
same,IC50,[5],152 nM
same,"viability, T/C",[6],106%
same,"viability, T/C",[7],91.2%
same,"viability, T/C",[8],70.3%
same,"viability, T/C",[9],9.6%
same,"viability, T/C",[10],0.22%
same,"viability, T/C",[11],0.32%
same,"viability, T/C",[12],96.7%
same,"viability, T/C",[13],92.6%
same,"viability, T/C",[14],64.3%
same,"viability, T/C",[15],10.6%
same,"viability, T/C",[16],0.24%
same,"viability, T/C",[17],0.42%
same,"viability, T/C",[18],112%
same,"viability, T/C",[19],89.5%
same,"viability, T/C",[20],75.1%
same,"viability, T/C",[21],13.9%
same,"viability, T/C",[22],1.06%
same,"viability, T/C",[23],0.34%
same,"viability, T/C",[24],101%
same,"viability, T/C",[25],101%
same,"viability, T/C",[26],68.6%
same,"viability, T/C",[27],10%
same,"viability, T/C",[28],1.82%
same,"viability, T/C",[29],0.33%
same,"viability, T/C",[30],115%
same,"viability, T/C",[31],92.6%
same,"viability, T/C",[32],76.3%
same,"viability, T/C",[33],14.5%
same,"viability, T/C",[34],0.36%
same,"viability, T/C",[35],0.36%
